Results reported in ChEMBL document CHEMBL1149145, “Synthesis and selective inhibitory activity of 1-acetyl-3,5-diphenyl-4,5-dihydro-(1H)-pyrazole derivatives against monoamine oxidase” (J Med Chem, 2004).

Experiments:
[1] = biological target: Monoamine oxidase (Bos taurus); test: Inhibition of bovine monoamine oxidase
[2] = biological target: Amine oxidase [flavin-containing] A (Bos taurus) (UniProt P21398); test: Inhibition of bovine monoamine oxidase A
[3] = biological target: Amine oxidase [flavin-containing] B (Bos taurus) (UniProt P56560); test: Inhibition of bovine monoamine oxidase B
[4] = biological target: Amine oxidase [flavin-containing] A (Bos taurus) (UniProt P21398); test: Binding affinity was evaluated against bovine monoamino oxidase A
[5] = biological target: Amine oxidase [flavin-containing] B (Bos taurus) (UniProt P56560); test: Binding affinity was evaluated against bovine monoamino oxidase B

Sequence of Amine oxidase [flavin-containing] B (Bos taurus) (P56560 whole entry, looked up): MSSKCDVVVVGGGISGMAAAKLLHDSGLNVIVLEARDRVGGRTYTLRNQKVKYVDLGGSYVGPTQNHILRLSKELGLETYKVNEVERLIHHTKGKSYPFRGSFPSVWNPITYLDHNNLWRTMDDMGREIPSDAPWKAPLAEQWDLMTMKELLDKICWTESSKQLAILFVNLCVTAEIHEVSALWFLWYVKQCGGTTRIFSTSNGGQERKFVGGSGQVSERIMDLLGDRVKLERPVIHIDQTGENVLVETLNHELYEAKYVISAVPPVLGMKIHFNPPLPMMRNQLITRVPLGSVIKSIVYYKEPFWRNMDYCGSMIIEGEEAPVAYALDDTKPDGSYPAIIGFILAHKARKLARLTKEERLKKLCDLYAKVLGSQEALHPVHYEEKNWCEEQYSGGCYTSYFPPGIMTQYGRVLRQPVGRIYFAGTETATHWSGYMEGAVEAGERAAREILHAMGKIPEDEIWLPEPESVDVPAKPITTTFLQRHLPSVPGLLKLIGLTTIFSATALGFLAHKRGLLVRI

| SMILES | IC50 [1] [µM] | IC50 [2] [µM] | IC50 [3] [µM] | Ki [4] [µM] | Ki [5] [µM] |
| --- | --- | --- | --- | --- | --- |
| COc1ccc(C2CC(c3ccc(O)cc3O)=NN2C(C)=O)cc1 (stereo not drawn) | 10 | 0.009 | 83 |  |  |
| CC(=O)N1N=C(c2ccc(O)cc2)CC1c1ccc(C)cc1 (stereo not drawn) | 0.2 | 0.1 | 30 |  |  |
| CC(=O)N1N=C(c2ccc(O)cc2)CC1c1cccc(Cl)c1 (stereo not drawn) | 12 | 0.01 | 25 |  |  |
| CC(=O)N1N=C(c2ccc(O)cc2)CC1c1cccc(C)c1 (stereo not drawn) | 9.5 | 0.008 | 19 |  |  |
| CC(=O)N1N=C(c2ccc(O)cc2O)CC1c1ccc(Cl)cc1 (stereo not drawn) | 20 | 0.01 | 120 |  |  |
| CC(=O)N1N=C(c2ccc(O)cc2O)CC1c1ccc(C)cc1 (stereo not drawn) | 9.5 | 0.009 | 42 |  |  |
| CC(=O)N1N=C(c2ccc(O)cc2)CC1c1ccccc1Cl (stereo not drawn) | 50 | 0.0086 | 89 |  |  |
| COc1ccc(C2CC(c3ccc(O)cc3)=NN2C(C)=O)c(OC)c1 (stereo not drawn) | 10 | 0.01 | 20 |  |  |
| COc1ccc(C2CC(c3ccc(O)cc3)=NN2C(C)=O)cc1 (stereo not drawn) | 3.6 | 0.009 | 7.2 |  |  |
| CC(=O)N1N=C(c2ccc(O)cc2)CC1c1ccc(Cl)cc1 (stereo not drawn) | 40 | 0.1 | 40 |  |  |
| COc1ccccc1C1CC(c2ccc(O)cc2O)=NN1C(C)=O (single isomer, unassigned; (+)) |  |  |  | 0.007 | 270 |
| COc1ccccc1C1CC(c2ccc(O)cc2)=NN1C(C)=O (single isomer, unassigned; (-)) |  |  |  | 0.002 | 330 |
| COc1ccccc1C1CC(c2ccc(O)cc2O)=NN1C(C)=O (single isomer, unassigned; (-)) |  |  |  | 0.004 | 320 |
| COc1ccccc1C1CC(c2ccc(O)cc2)=NN1C(C)=O (stereo in doubt; 6) | 30 | 0.0088 | 100 | 0.009 | 760 |
| COc1ccccc1C1CC(c2ccc(O)cc2O)=NN1C(C)=O (stereo in doubt; 11) | 40 | 0.008 | 130 | 0.008 | 600 |
| COc1ccccc1C1CC(c2ccc(O)cc2)=NN1C(C)=O (stereo in doubt; (+)-6) |  |  |  | 0.006 | 1000 |
